This note sets out measurements from ChEMBL document CHEMBL1201862, “PubChem BioAssay data set” (2004).

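Step 1: Grow cells in 96-well plates. Step 2: Expose to compound for 48 hours at 5 concentrations. Step 3: Interpolate endpoints linearly; if unreached, use highest concentration. Here, GI50 denotes the concentration required for 50% inhibition of growth.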 Active and inactive are the calls of the source. No stated cut-off is given here; in the data, active = GI50 up to about 1.1 µM and inactive = higher.

Among the test systems are SK-MEL-5; HL-60; COLO 205; HOP-62; OVCAR-3; RPMI-8226; LOX IMVI; BT-549; KM12; Malme-3M; A549; SNB-19; NCI/ADR-RES; IGROV-1; HCT-116; NCI-H226; NCI-H460; NCI-H23.
Holding throughout (assay): DTP human tumour cell line panel, 48 h

For orientation: GI50 means the concentration giving 50% growth inhibition. For `C=C(C)C(=O)O[C@H]1[C@H]2[C@H](OC(=O)[C@H]2C)[C@H](O)[C@@H](C)[C@@H]2C=CC(=O)[C@]21C`, the GI50 in the assay on SK-MEL-5 is 5.47 µM (inactive); in the assay with HL-60, 0.692 µM (active); with COLO 205, 3.27 µM (inactive); in the assay on HOP-62, 9.06 µM (inactive); with OVCAR-3, 4.52 µM (inactive); in the assay on RPMI-8226 it was 2.85 µM (inactive). For the same compound, the GI50 with LOX IMVI was 2.62 µM (inactive); in the assay with BT-549, 3.83 µM (inactive); in the assay on KM12, 2.51 µM (inactive); in the assay on Malme-3M it was 2.18 µM (inactive); in the assay with A549, 4.16 µM (inactive); in the assay with SNB-19, 4.93 µM (inactive). Besides, the GI50 in the assay on NCI/ADR-RES was 3.22 µM (inactive); in the assay with IGROV-1 it was 2.37 µM (inactive); with HCT-116, 2.32 µM (inactive); with NCI-H226 it was 8.57 µM (inactive); with NCI-H460, 1.82 µM (inactive); in the assay with NCI-H23, 3.71 µM (inactive).
For the compound `CCOC(=O)c1c(C)n(Cc2ccc(Cl)cc2Cl)c2c1cc(O)c1[nH]c3c(c12)CCCC3`, the GI50 is 20.5 µM (inactive) with SK-MEL-5; < 0.01 µM (active) in the assay on HL-60; 37.1 µM (inactive) with COLO 205; 27.5 µM (inactive) in the assay on HOP-62; 38 µM (inactive) in the assay on OVCAR-3; 16.6 µM (inactive) with RPMI-8226. Moreover, the GI50 with LOX IMVI was 33.5 µM (inactive); with BT-549, 18.9 µM (inactive); with KM12, 22.6 µM (inactive); with Malme-3M, 20.6 µM (inactive); in the assay with A549, 52 µM (inactive); with SNB-19 it was 23.6 µM (inactive). Besides, the GI50 is 18.8 µM (inactive) in the assay on NCI/ADR-RES; 24.9 µM (inactive) in the assay on IGROV-1; 40.7 µM (inactive) with HCT-116; 23.6 µM (inactive) with NCI-H226; 28.3 µM (inactive) in the assay with NCI-H460; 27.5 µM (inactive) in the assay with NCI-H23.
`CC(=O)Oc1cccc2c(/C=N/NC(N)=S)ncc(C)c12`: the GI50 with SK-MEL-5 is 1.38 µM (inactive); in the assay on HL-60 it was 0.931 µM (active); with COLO 205 it was 3.4 µM (inactive); in the assay on HOP-62, 1.07 µM (active); with OVCAR-3, 0.381 µM (active); in the assay with RPMI-8226 it was 1.56 µM (inactive). Moreover, the concentration for 50% growth inhibition (GI50) was 0.596 µM (active) with LOX IMVI; 1.28 µM (inactive) with BT-549; 0.895 µM (active) in the assay with KM12; 1.26 µM (inactive) in the assay with Malme-3M; 3.81 µM (inactive) in the assay on A549; 1.2 µM (inactive) in the assay with SNB-19. The GI50 in the assay with NCI/ADR-RES was 1.01 µM (active); in the assay with IGROV-1 it was 2.99 µM (inactive); in the assay with HCT-116, 1.96 µM (inactive); in the assay on NCI-H226, 2.96 µM (inactive); in the assay with NCI-H460, 0.966 µM (active); in the assay on NCI-H23 it was 0.746 µM (active).
In the case of `Cc1ccc(NCC2CC/C(=C\c3ccc(Cl)cc3)C2=O)cc1` (stereo unspecified), the GI50 in the assay with SK-MEL-5 was 14.5 µM (inactive); in the assay on HL-60, 2.16 µM (inactive); in the assay with COLO 205 it was 14.8 µM (inactive); in the assay with HOP-62, 50 µM (inactive); in the assay on OVCAR-3, 14.3 µM (inactive); in the assay on RPMI-8226, 0.635 µM (active). The GI50 is 6.03 µM (inactive) in the assay on LOX IMVI; 15.3 µM (inactive) in the assay with BT-549; 5.66 µM (inactive) in the assay on KM12; 18 µM (inactive) in the assay with Malme-3M; 49.4 µM (inactive) with A549; 21.2 µM (inactive) in the assay on SNB-19. The GI50 in the assay on NCI/ADR-RES is 33.7 µM (inactive); in the assay with IGROV-1, 16.6 µM (inactive); in the assay on HCT-116, 11.6 µM (inactive); in the assay on NCI-H226, > 76.6 µM (inactive); with NCI-H460, 21.7 µM (inactive); in the assay on NCI-H23, 20.6 µM (inactive).
As to `CS(C)(=O)=N/C=C\C(=O)C(Cl)(Cl)Cl`, the GI50 in the assay on SK-MEL-5 was > 100 µM (inactive); in the assay on HL-60, > 100 µM (inactive); in the assay with COLO 205, > 100 µM (inactive); in the assay on HOP-62 it was 99.1 µM (inactive); in the assay on OVCAR-3 it was > 100 µM (inactive); in the assay on RPMI-8226 it was 83 µM (inactive). For the same compound, the GI50 with LOX IMVI, in the assay with BT-549, with KM12, in the assay on Malme-3M, in the assay with A549 and in the assay on SNB-19 was > 100 µM (inactive) throughout. The GI50 in the assay on NCI/ADR-RES was > 100 µM (inactive); in the assay on IGROV-1 it was 93.5 µM (inactive); in the assay on HCT-116, 98.6 µM (inactive); with NCI-H226 it was > 100 µM (inactive); in the assay with NCI-H460, > 100 µM (inactive); in the assay with NCI-H23, > 100 µM (inactive).
As to `COc1ccc(NC(S)=Nc2ccccc2)cc1`, the GI50 was > 100 µM (inactive) with SK-MEL-5; 24.2 µM (inactive) in the assay with HL-60; > 100 µM (inactive) in the assay on COLO 205; > 100 µM (inactive) in the assay on HOP-62; > 100 µM (inactive) in the assay with OVCAR-3; > 100 µM (inactive) with RPMI-8226. Besides, the GI50 in the assay with LOX IMVI, in the assay with BT-549, with Malme-3M, in the assay with A549, in the assay on SNB-19 and in the assay on NCI/ADR-RES was > 100 µM (inactive) throughout. In addition, the GI50 in the assay on IGROV-1, with HCT-116, in the assay on NCI-H226, with NCI-H460 and in the assay on NCI-H23 was > 100 µM (inactive) each time.
As to `CCCCCCC1CC(=O)C1(Cl)Cl` (stereo unspecified), the GI50 in the assay on SK-MEL-5 was 17 µM (inactive); in the assay on HL-60, 2.96 µM (inactive); with HOP-62, 44.7 µM (inactive); in the assay with RPMI-8226 it was 0.377 µM (active); with LOX IMVI it was 14.8 µM (inactive); with BT-549, 21.4 µM (inactive). For the same compound, the GI50 in the assay on KM12 was 22.4 µM (inactive); in the assay on Malme-3M it was 16.1 µM (inactive); in the assay with A549, > 100 µM (inactive); with SNB-19 it was 63.7 µM (inactive); with NCI/ADR-RES, 32.2 µM (inactive); in the assay with IGROV-1 it was 25.1 µM (inactive). Moreover, the GI50 with HCT-116 is 16.7 µM (inactive); with NCI-H226, 43.9 µM (inactive); in the assay on NCI-H460, > 10 µM (inactive); in the assay on NCI-H23, 25.2 µM (inactive).
For the compound `CCN(CC)CCc1c2c(nc3ccccc13)C(=O)c1cccnc1C2=O`, the GI50 in the assay with SK-MEL-5 was 0.209 µM (active); with HL-60 it was 0.251 µM (active); with COLO 205, 1.58 µM (inactive); with HOP-62 it was 2.44 µM (inactive); with OVCAR-3, 0.055 µM (active); in the assay on RPMI-8226, 1.88 µM (inactive). Moreover, the concentration for 50% growth inhibition (GI50) was 0.369 µM (active) in the assay with LOX IMVI; 2.4 µM (inactive) in the assay on BT-549; 0.857 µM (active) in the assay on KM12; 2.02 µM (inactive) with Malme-3M; 2.88 µM (inactive) in the assay with A549; 4.28 µM (inactive) in the assay on NCI/ADR-RES. For the same compound, the GI50 in the assay with IGROV-1 is 1.74 µM (inactive); with HCT-116, 0.325 µM (active); in the assay on NCI-H226 it was 4.68 µM (inactive); in the assay on NCI-H23, 3.08 µM (inactive).
Regarding `c1ccc(CCN(Cc2nc3ccccc3[nH]2)Cc2nc3ccccc3[nH]2)cc1`, the GI50 is 3.86 µM (inactive) in the assay with SK-MEL-5; 2.41 µM (inactive) with HL-60; 13.4 µM (inactive) with COLO 205; 11.3 µM (inactive) in the assay with HOP-62; 20.2 µM (inactive) in the assay on OVCAR-3; 3.05 µM (inactive) in the assay with RPMI-8226. The GI50 in the assay with LOX IMVI was 10.1 µM (inactive); in the assay on BT-549, 12.1 µM (inactive); in the assay with KM12, 12.3 µM (inactive); in the assay on Malme-3M it was 21.6 µM (inactive); in the assay with A549, 17.1 µM (inactive); with SNB-19, 16.2 µM (inactive). In addition, the GI50 in the assay with NCI/ADR-RES was 5.93 µM (inactive); in the assay with IGROV-1, 8.15 µM (inactive); in the assay with HCT-116, 4.67 µM (inactive); in the assay with NCI-H226 it was 27.6 µM (inactive); in the assay on NCI-H460, 10 µM (inactive); in the assay with NCI-H23 it was 16 µM (inactive).
Turning to `CN1CCc2c(sc3ncn(N)c(=N)c23)C1`, the GI50 in the assay with SK-MEL-5, in the assay with HL-60, in the assay on HOP-62, in the assay with OVCAR-3, with RPMI-8226 and in the assay with LOX IMVI was > 100 µM (inactive) throughout. In addition, the GI50 in the assay with BT-549, with KM12, in the assay on Malme-3M, in the assay with A549, with SNB-19 and in the assay on NCI/ADR-RES was > 100 µM (inactive) throughout. The GI50 in the assay on IGROV-1 is > 100 µM (inactive); in the assay with HCT-116, > 100 µM (inactive); in the assay with NCI-H226, 78.9 µM (inactive); in the assay with NCI-H460, > 100 µM (inactive); in the assay on NCI-H23, > 100 µM (inactive).
`CCCC1=NC(C(F)(F)F)(C(F)(F)F)N=C(N2CCOCC2)O1`: the GI50 in the assay with SK-MEL-5, with HL-60, in the assay with COLO 205, with HOP-62, in the assay with OVCAR-3 and with RPMI-8226 was > 100 µM (inactive) each time. For the same compound, the GI50 in the assay on LOX IMVI, with BT-549, in the assay on KM12, in the assay on Malme-3M, in the assay with A549 and in the assay with SNB-19 was > 100 µM (inactive) each time. Besides, the GI50 in the assay on NCI/ADR-RES, in the assay on IGROV-1, with HCT-116, in the assay on NCI-H226 and in the assay with NCI-H23 was > 100 µM (inactive) each time.
